{
  "source": "patent US20230277483A1",
  "about": "“COMPOSITIONS AND METHODS TO TREAT INFLAMMATION” (University of Iowa Research Foundation, priority 2022, published 2023)",
  "key": {"[1]": {"system": "human monocyte-derived macrophages (MDM)", "assay": "MTT toxicity assay", "assay_type": "cell-based", "conditions": "HCA from 0.1 to 50 μM; 24 and 48 hours", "description": "HCA promotes proliferation of health related bacteria and inhibits proliferation and attachment of periodontopathogenic bacteria. Promoting the growth of health-related commensal bacteria while inhibiting proliferation and attachment of pathogenic bacteria may be effective at preventing or treating periodontal inflammation. To determine if HCA has an effect on the growth properties of commensal bacteria and periodontopathogens, HCA at different concentrations was added to aerobic culture of S. mitis and S. oralis and anaerobic culture of T. denticola as described in our published manuscript (see detail in Shu et al, Journal of Periodontology, 2022). FIGS. 18A-C summarize the functions of HCA on the proliferation of specific commensal and pathogenic bacteria. […] Furthermore, the function of HCA on P. gingivalis attachment, a key parameter of adhesion and biofilm formation by periodontopathogenic bacteria, was investigated. […] The composition of the microbiomes was determined by amplifying the V3 and V4 regions of the 16S rRNA genes. Raw data in FASTQ format were filtered and denoised using DADA2 (Divisive Amplicon Denoising Algorithm) to generate amplicon sequence variants (ASV) or operational taxonomical units (OTUs) that were then analyzed by QIIME2."}, "HGF": {"system": "HGF", "assay": "Anti-inflammatory miR expression after Pg-LPS challenge", "assay_type": "cell-based, human", "conditions": "24 hours after Pg-LPS challenge", "description": "FIGS. 11A-11B. Sg metabolites upregulate anti-inflammatory miRs in human macrophages and HGF. A-B: Relative transcript changes of miR-200c, 146a, and 21 in HGF (A) and human MDM (B) treated with AICAR, MA, HCA, and HPLA 24 hours after Pg-LPS challenge; performed in duplicate."}, "C57BL/6J mice": {"system": "C57BL/6J mice", "assay": "Pg-LPS gingival injection mouse model of periodontal inflammation", "assay_type": "in vivo", "conditions": "100 μl of HCA at 0.5 μM I.P. three times a week, 3 weeks"}},
  "data": [
    {"compound": "O=C(O)CCCCCO", "note": "[HCA, 6-hydroxycaproic acid]", "values": [
      {"measurement": "toxicity (MTT assay)", "setting": "[1]", "result": "No toxicity"},
      {"measurement": "anti-inflammatory miRs (miR-200c, 146a, and 21)", "setting": "HGF", "result": "upregulate"},
      {"measurement": "serum IL-1β production (ELISA)", "setting": "C57BL/6J mice", "result": "significantly reduced"},
      {"measurement": "gingival IL-1β expression (qRT-PCR)", "setting": "C57BL/6J mice; Pg-LPS twice a week", "result": "suppressing gingival IL-1β expression"}
    ]}
  ]
}
